From PubChem BioAssay AID2842 (Southern Research Institute, 2010)
≈ marks a conversion by molar mass, not a printed value.

The molecules below were run on M. tuberculosis H37Rv growth inhibition (assay: Mycobacterium tuberculosis H37Rv growth inhibition, putative kinase inhibitor library, confirmatory dose response (AID 2842);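 further: bacteria incubated one week before Alamar blue readout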).
In the case of Cc1ccc(C2C(C#N)=C(SCC(=O)Nc3cccc(Cl)c3)NC3=C2C(=O)CCC3)o1 (stereo not drawn), the IC90 is reported as 12.1 µg/mL (≈ 26.6 µM).
With COC(=O)c1c2c(n3ccc(C)cc13)C(=O)c1ccccc1C2=O the IC90 was 0.35 µg/mL (≈ 1.1 µM).
O=C(Nc1nnc(-c2cc(Cl)ccc2Cl)o1)c1cccs1 gave an IC90 of 0.76 µg/mL (≈ 2.23 µM).
NC(=O)C1CCN(C2=NC(=O)/C(=C\c3ccc(Cl)cc3Cl)S2)CC1 showed an IC90 of under 0.2 µg/mL.
In the case of CCOc1cc(-c2nnc(NC(=O)c3ccccc3Cl)o2)cc(OCC)c1OCC, the IC90 is reported as 1.61 µg/mL (≈ 3.73 µM).
Molecule N=c1nnc2c3ccccc3ccc2n1O has an IC90 of 41.3 µg/mL (≈ 195 µM).
Cc1ccc(-c2nnc(NC(=O)C3CC3)o2)c(C)c1 showed an IC90 of 1.47 µg/mL (≈ 5.71 µM).
With CCOc1ccc2nc(Nc3nc4c(OC)cccc4s3)sc2c1 the IC90 was 3.75 µg/mL (≈ 10.5 µM).
In the case of Cc1ccc(-c2[nH]c3ccccc3c2SCCNC(=O)c2cc3ccccc3oc2=O)cc1, the IC90 is reported as 4 µg/mL (≈ 8.8 µM).
COC(=O)c1cc(C(=O)OC)cc(-n2c(C)cc(C(=O)CCl)c2C)c1 showed an IC90 of 6.39 µg/mL (≈ 17.6 µM).
With O=C(/C=C/c1ccccc1Cl)Nc1nnc(C2=COCCO2)o1 the IC90 was 26.7 µg/mL (≈ 79.9 µM).
O=C(Nc1nnc(-c2ccccc2Cl)o1)C1=COCCO1 gave an IC90 of 4.3 µg/mL (≈ 14 µM).
CCCCOc1cccc(C(=O)Nc2nnc(-c3ccc(C)cc3C)o2)c1 was tested, and the IC90 was 2.63 µg/mL (≈ 7.2 µM).
With O=C(Nc1nnc(-c2ccco2)o1)c1ccc([N+](=O)[O-])cc1 the IC90 was 35.8 µg/mL (≈ 119 µM).
For COc1cc(OC)cc(C(=O)N(CCCn2ccnc2)c2nc3cc(C)cc(C)c3s2)c1, the IC90 was 6.63 µg/mL (≈ 14.7 µM).
With c1ccc(CN2CCN(c3nc(Nc4ccccc4)c4nccnc4n3)CC2)cc1 the IC90 was 5.37 µg/mL (≈ 13.5 µM).
With Cc1cc(C)c2nc(NNC(=O)c3ccccc3F)sc2c1 the IC90 was 3.08 µg/mL (≈ 9.77 µM).
O=C(Nc1nnc(-c2cccs2)o1)C1=COCCO1 was tested, and the IC90 was 6.18 µg/mL (≈ 22.1 µM).
Work on COc1ccc(-c2nnc(NC(=O)C(C)C)o2)cc1 yielded an IC90 of 19.9 µg/mL (≈ 76.3 µM).
O=C(Nc1nnc(-c2cc(Cl)ccc2Cl)o1)c1cccc(Cl)c1 showed an IC90 of 31.7 µg/mL (≈ 86.1 µM).
With CCOC(=O)c1c(NC(=O)c2ccccc2Br)sc2c1CC(C)(C)NC2(C)C the IC90 was 8.85 µg/mL (≈ 19 µM).
COc1cc(Br)cc(/C=N/Nc2nc(=O)[nH]nc2C)c1O was tested, and the IC90 was under 0.2 µg/mL.
CCOC(=O)N1CCc2c(sc(NC(=O)CCOc3ccccc3)c2C(N)=O)C1 showed an IC90 of 12.4 µg/mL (≈ 29.7 µM).
O=C(Nc1ccc(F)cc1)Nc1nc(C(=O)N2CCN(c3ccc(F)cc3)CC2)cs1 was tested, and the IC90 was 7.09 µg/mL (≈ 16 µM).
Molecule CCOc1cc(-c2nnc(NC(=O)C(C)C)o2)cc(OCC)c1OCC has an IC90 of 9.11 µg/mL (≈ 25.1 µM).
Molecule NC(=O)c1c(NC(=O)/C=C/c2ccc([N+](=O)[O-])s2)sc2c1CCCC2 has an IC90 of 4.6 µg/mL (≈ 12.2 µM).
Molecule CC(C)(C)c1ccc(C(=O)Nc2nnc(-c3ccco3)o2)cc1 has an IC90 of 1.18 µg/mL (≈ 3.79 µM).
Oc1cc(OCc2ccccc2Cl)ccc1-c1[nH]ncc1-c1ccccc1 showed an IC90 of 7.69 µg/mL (≈ 20.4 µM).
For COc1cc(OC)cc(C(=O)Nc2nnc(-c3ccc(Br)cc3)o2)c1, the IC90 was 52.3 µg/mL (≈ 129 µM).
Work on COc1ccc(OC)c(-c2csc(NC(=O)c3ccc([N+](=O)[O-])o3)n2)c1 yielded an IC90 of 27.1 µg/mL (≈ 72.2 µM).
In the case of CCOC(=O)COc1ccc(/C=C2\Oc3cc(OC)ccc3C2=O)cc1, the IC90 is reported as 3.32 µg/mL (≈ 9.37 µM).
COc1ccccc1-c1nnc(NC(=O)c2ccc(-c3ccccc3)cc2)o1 showed an IC90 of 1.48 µg/mL (≈ 3.98 µM).
Cc1cc(C)c(-c2csc(NC(=O)c3ccc4c(c3)OCCO4)n2)c(C)c1 showed an IC90 of 7.63 µg/mL (≈ 20.1 µM).
O=C(Nc1nnc(-c2ccc(Br)cc2)o1)c1sc2ccccc2c1Cl gave an IC90 of 6.7 µg/mL (≈ 15.4 µM).
Molecule Cc1ccc(C)c(-c2nnc(NC(=O)c3ccccc3S(C)(=O)=O)o2)c1 has an IC90 of 19.3 µg/mL (≈ 52 µM).
In the case of CSc1cccc2sc(Nc3cccc(C)c3)nc12, the IC90 is reported as 12.2 µg/mL (≈ 42.7 µM).
In the case of O=C(Nc1nnc(-c2ccc(Cl)s2)o1)C1CCCCC1, the IC90 is reported as 6.45 µg/mL (≈ 20.7 µM).
With O=C(COc1ccc2c3c(c(=O)oc2c1)CCCC3)OC1CCCCC1 the IC90 was 9.71 µg/mL (≈ 27.2 µM).
Molecule O=C(CN1CCOCC1)Nc1ncc(Cc2cc(Cl)cc(Cl)c2)s1 has an IC90 of 14.9 µg/mL (≈ 38.5 µM).
For NNC(=O)c1ccc(-c2ccccc2Cl)o1, the IC90 was 3.96 µg/mL (≈ 16.7 µM).
For COc1cccc(C(=O)Nc2nnc(-c3ccc(C)cc3C)o2)c1, the IC90 was 20.8 µg/mL (≈ 64.2 µM).
Cc1cccc2sc(NNC(=O)c3cc(-c4cccs4)nc4ccccc34)nc12 showed an IC90 of 22.8 µg/mL (≈ 54.8 µM).
Cc1ccc(C)c(-c2csc(NC(=O)c3ccc([N+](=O)[O-])s3)n2)c1 gave an IC90 of 3.37 µg/mL (≈ 9.38 µM).
Work on O=C(Nc1nnc(-c2ccco2)o1)c1cccs1 yielded an IC90 of 3.12 µg/mL (≈ 11.9 µM).
O=C(Nc1ncc(Cc2ccccc2Cl)s1)c1cccs1 showed an IC90 of 18.3 µg/mL (≈ 54.5 µM).
Cc1ccc(-c2nnc(NC(=O)c3ccc(Br)cc3)o2)c(C)c1 showed an IC90 of 52.2 µg/mL (≈ 140 µM).
O=C(Nc1cccc(Br)c1)c1ccc([N+](=O)[O-])s1 gave an IC90 of under 0.2 µg/mL.
O=C(Cc1cccc2ccccc12)Nc1nnc(-c2ccco2)o1 was tested, and the IC90 was 6.89 µg/mL (≈ 21.6 µM).
With Cc1ccc(-c2nnc(NC(=O)c3ccccc3F)o2)c(C)c1 the IC90 was 1.31 µg/mL (≈ 4.21 µM).
With O=C(c1ccco1)N(CCCn1ccnc1)c1nc2ccc(Cl)cc2s1 the IC90 was 0.89 µg/mL (≈ 2.3 µM).
With O=C(Nc1nnc(-c2ccc(F)cc2)o1)c1ccc(Br)s1 the IC90 was under 0.2 µg/mL.
For COc1ccc(-c2nc(NC(=O)c3cccc(C)c3)sc2C)cc1, the IC90 was 5.78 µg/mL (≈ 17.1 µM).
For COc1cccc(Cn2cc3c(-c4ccc(Cl)cc4)nnc-3c3cc(OC)c(OC)cc32)c1, the IC90 was 15.2 µg/mL (≈ 33.1 µM).
With COC(=O)c1c(NC(=O)c2ccccc2Oc2ccccc2)sc2c1CC(C)(C)NC2(C)C the IC90 was 37.1 µg/mL (≈ 79.8 µM).
For CSc1ccc2nc(Nc3cccc(C)c3C)sc2c1, the IC90 was 18.8 µg/mL (≈ 62.7 µM).
COc1cccc2sc(Nc3nc4ccc(S(C)(=O)=O)cc4s3)nc12 gave an IC90 of 20.2 µg/mL (≈ 51.7 µM).
O=C1C(Cl)=C(Nc2ccccc2O)C(=O)N1c1ccc(Cl)c(Cl)c1 showed an IC90 of 0.84 µg/mL (≈ 2.19 µM).
Molecule CC(C)c1cc(-c2nc(-c3ccccc3)no2)n[nH]1 has an IC90 of 12.7 µg/mL (≈ 49.9 µM).
